{"source": "ChEMBL document CHEMBL3046692", "about": "“Antifeedant effect of commercial chemicals and plant extracts against Schistocerca americana (Orthoptera: Acrididae) and Diaprepes abbreviatus (Coleoptera: Curculionidae)” (2011)", "key": {"Schistocerca americana [1]": {"system": "Schistocerca americana", "assay": "Antifeedant activity against Schistocerca americana in compound treated Citrus paradisi MacFad (Rutaceae) potted plants assessed as area consumed from leaf disk measured under different 8 hr sunlight exposure at 18 g/l by No-choice tests", "format": "functional, organism-based"}, "Schistocerca americana [2]": {"system": "Schistocerca americana", "assay": "Antifeedant activity against Schistocerca americana in compound treated Citrus paradisi MacFad (Rutaceae) potted plants assessed as area consumed from leaf disk measured under different 4 hr sunlight exposure at 18 g/l by No-choice tests", "format": "functional, organism-based"}, "Schistocerca americana [3]": {"system": "Schistocerca americana", "assay": "Antifeedant activity against Schistocerca americana in compound treated healthy romaine lettuce plants assessed as area consumed from leaf disk at 5.6 ml/l by No-choice tests (3.10 +/- 0.1 cm'2)", "format": "functional"}, "Schistocerca americana [4]": {"system": "Schistocerca americana", "assay": "Antifeedant activity against Schistocerca americana in compound treated Citrus paradisi MacFad (Rutaceae) potted plants assessed as area consumed from leaf disk measured under 8 hr sunlight exposure at 5.6 ml/l by No-choice tests", "format": "functional, organism-based"}, "Schistocerca americana [5]": {"system": "Schistocerca americana", "assay": "Antifeedant activity against Schistocerca americana in compound treated Citrus paradisi MacFad (Rutaceae) potted plants assessed as area consumed from leaf disk measured under 4 hr sunlight exposure at 5.6 ml/l by No-choice tests", "format": "functional, organism-based"}, "Schistocerca americana [6]": {"system": "Schistocerca americana", "assay": "Antifeedant activity against Schistocerca americana in compound treated Citrus paradisi MacFad (Rutaceae) potted plants assessed as area consumed from leaf disk measured under 8 hr sunlight exposure at 18 g/l by No-choice tests", "format": "functional, organism-based"}, "Diaprepes abbreviatus [7]": {"system": "Diaprepes abbreviatus", "assay": "Antifeedant activity against Diaprepes abbreviatus in compound treated healthy romaine lettuce plants assessed as area consumed from leaf disk at 5.6 ml/l by choice tests (1.45 +/- 0.1 cm'2)", "format": "functional"}, "Schistocerca americana [8]": {"system": "Schistocerca americana", "assay": "Antifeedant activity against Schistocerca americana in compound treated Citrus paradisi MacFad (Rutaceae) potted plants assessed as area consumed from leaf disk measured under different 12 hr sunlight exposure at 18 g/l by No-choice tests", "format": "functional, organism-based"}, "Schistocerca americana [9]": {"system": "Schistocerca americana", "assay": "Antifeedant activity against Schistocerca americana in compound treated healthy romaine lettuce plants assessed as area consumed from leaf disk at 5.6 ml/l by choice tests (2.62 +/- 0.1 cm'2)", "format": "functional"}, "Schistocerca americana [10]": {"system": "Schistocerca americana", "assay": "Antifeedant activity against Schistocerca americana in compound treated Citrus paradisi MacFad (Rutaceae) potted plants assessed as area consumed from leaf disk measured under 4 hr sunlight exposure at 18 g/l by No-choice tests", "format": "functional, organism-based"}, "Diaprepes abbreviatus [11]": {"system": "Diaprepes abbreviatus", "assay": "Antifeedant activity against Diaprepes abbreviatus in compound treated healthy romaine lettuce plants assessed as area consumed from leaf disk at 5.6 ml/l by No-choice tests (1.40 +/- 0.1 cm'2)", "format": "functional"}, "Schistocerca americana [12]": {"system": "Schistocerca americana", "assay": "Antifeedant activity against Schistocerca americana in compound treated healthy romaine lettuce plants assessed as area consumed from leaf disk at 31.3 ml/l by choice tests (1.79 +/- 0.2 cm'2)", "format": "functional"}, "Diaprepes abbreviatus [13]": {"system": "Diaprepes abbreviatus", "assay": "Antifeedant activity against Diaprepes abbreviatus in compound treated healthy romaine lettuce plants assessed as area consumed from leaf disk at 31.3 ml/l by choice tests (1.39 +/- 0.1 cm'2)", "format": "functional"}, "Diaprepes abbreviatus [14]": {"system": "Diaprepes abbreviatus", "assay": "Antifeedant activity against Diaprepes abbreviatus in compound treated healthy romaine lettuce plants assessed as area consumed from leaf disk at 48 g/l by choice tests (1.47 +/- 0.1 cm'2)", "format": "functional"}, "Diaprepes abbreviatus [15]": {"system": "Diaprepes abbreviatus", "assay": "Antifeedant activity against Diaprepes abbreviatus in compound treated healthy romaine lettuce plants assessed as area consumed from leaf disk at 48 g/l by No-choice tests (2.51 +/- 0.2 cm'2)", "format": "functional"}, "Diaprepes abbreviatus [16]": {"system": "Diaprepes abbreviatus", "assay": "Antifeedant activity against Diaprepes abbreviatus in compound treated Citrus paradisi MacFad (Rutaceae) potted plants assessed as reduction in leaf consumption measured under 4 hr sunlight exposure at 5.6 ml/l by No-choice tests", "format": "functional, organism-based"}, "Diaprepes abbreviatus [17]": {"system": "Diaprepes abbreviatus", "assay": "Antifeedant activity against Diaprepes abbreviatus in compound treated Citrus paradisi MacFad (Rutaceae) potted plants assessed as reduction in leaf consumption measured under 12 hr sunlight exposure at 5.6 ml/l by No-choice tests", "format": "functional, organism-based"}, "Diaprepes abbreviatus [18]": {"system": "Diaprepes abbreviatus", "assay": "Antifeedant activity against Diaprepes abbreviatus in compound treated Citrus paradisi MacFad (Rutaceae) potted plants assessed as reduction in leaf consumption measured under 8 hr sunlight exposure at 5.6 ml/l by No-choice tests", "format": "functional, organism-based"}, "Schistocerca americana [19]": {"system": "Schistocerca americana", "assay": "Antifeedant activity against Schistocerca americana in compound treated healthy romaine lettuce plants assessed as area consumed from leaf disk at 48 g/l by choice tests (1.88 +/- 0.2 cm'2)", "format": "functional"}, "Diaprepes abbreviatus [20]": {"system": "Diaprepes abbreviatus", "assay": "Antifeedant activity against Diaprepes abbreviatus in compound treated Citrus paradisi MacFad (Rutaceae) potted plants assessed as reduction in leaf consumption measured under 12 hr sunlight exposure at 18 g/l by No-choice tests", "format": "functional, organism-based"}, "Schistocerca americana [21]": {"system": "Schistocerca americana", "assay": "Antifeedant activity against Schistocerca americana in compound treated healthy romaine lettuce plants assessed as area consumed from leaf disk at 18 g/l by choice tests (2.28 +/- 0.1 cm'2)", "format": "functional"}, "Diaprepes abbreviatus [22]": {"system": "Diaprepes abbreviatus", "assay": "Antifeedant activity against Diaprepes abbreviatus in compound treated healthy romaine lettuce plants assessed as area consumed from leaf disk at 18 g/l by choice tests (1.19 +/- 0.1 cm'2)", "format": "functional"}, "Diaprepes abbreviatus [23]": {"system": "Diaprepes abbreviatus", "assay": "Antifeedant activity against Diaprepes abbreviatus in compound treated Citrus paradisi MacFad (Rutaceae) potted plants assessed as reduction in leaf consumption measured under 8 hr sunlight exposure at 18 g/l by No-choice tests", "format": "functional, organism-based"}, "Schistocerca americana [24]": {"system": "Schistocerca americana", "assay": "Antifeedant activity against Schistocerca americana in compound treated healthy romaine lettuce plants assessed as area consumed from leaf disk at 18 g/l by No-choice tests (3.14 +/- 0.1 cm'2)", "format": "functional"}, "Diaprepes abbreviatus [25]": {"system": "Diaprepes abbreviatus", "assay": "Antifeedant activity against Diaprepes abbreviatus in compound treated healthy romaine lettuce plants assessed as area consumed from leaf disk at 18 g/l by No-choice tests (2.48 +/- 0.1 cm'2)", "format": "functional"}, "Diaprepes abbreviatus [26]": {"system": "Diaprepes abbreviatus", "assay": "Antifeedant activity against Diaprepes abbreviatus in compound treated Citrus paradisi MacFad (Rutaceae) potted plants assessed as reduction in leaf consumption measured under 4 hr sunlight exposure at 18 g/l by No-choice tests", "format": "functional, organism-based"}}, "note": "Calls of active or inactive are those of the source. The calls are words filed in the database; no cut-off is given here.", "data": [{"compound": "C/C=C(\\C)C(=O)O[C@H]1C[C@@H](OC(C)=O)[C@@]2(C(=O)OC)CO[C@H]3[C@@H](O)[C@@](C)([C@]45O[C@@]4(C)[C@@H]4C[C@H]5O[C@@H]5OC=C[C@@]54O)[C@H]4[C@]1(CO[C@]4(O)C(=O)OC)[C@@H]32", "note": "[AZADIRACHTIN A]", "values": [{"measurement": "Activity", "setting": "Schistocerca americana [1]", "result": "inactive"}, {"measurement": "Activity", "setting": "Schistocerca americana [2]", "result": "inactive"}, {"measurement": "Activity", "setting": "Schistocerca americana [3]", "result": 0.29, "unit": "cm2"}, {"measurement": "Activity", "setting": "Schistocerca americana [4]", "result": "Active"}, {"measurement": "Activity", "setting": "Schistocerca americana [5]", "result": "inactive"}, {"measurement": "Activity", "setting": "Schistocerca americana [6]", "result": "Active"}, {"measurement": "Activity", "setting": "Diaprepes abbreviatus [7]", "result": 0.74, "unit": "cm2"}, {"measurement": "Activity", "setting": "Schistocerca americana [8]", "result": "inactive"}, {"measurement": "Activity", "setting": "Schistocerca americana [9]", "result": 0.4, "unit": "cm2"}, {"measurement": "Activity", "setting": "Schistocerca americana [10]", "result": "inactive"}, {"measurement": "Activity", "setting": "Diaprepes abbreviatus [11]", "result": 1.8, "unit": "cm2"}]}, {"compound": "COc1cc(CNC(=O)CCCC/C=C/C(C)C)ccc1O", "note": "[CAPSAICIN]", "values": [{"measurement": "Activity", "setting": "Schistocerca americana [12]", "result": 1.08, "unit": "cm2"}, {"measurement": "Activity", "setting": "Diaprepes abbreviatus [13]", "result": 1.02, "unit": "cm2"}]}, {"compound": "C=C(C)[C@H]1Cc2c(ccc3c2O[C@@H]2COc4cc(OC)c(OC)cc4[C@@H]2C3=O)O1", "note": "[ROTENONE]", "values": [{"measurement": "Activity", "setting": "Diaprepes abbreviatus [14]", "result": 0.24, "unit": "cm2"}, {"measurement": "Activity", "setting": "Diaprepes abbreviatus [15]", "result": 2.42, "unit": "cm2"}, {"measurement": "Activity", "setting": "Diaprepes abbreviatus [16]", "result": "inactive"}, {"measurement": "Activity", "setting": "Diaprepes abbreviatus [17]", "result": "inactive"}, {"measurement": "Activity", "setting": "Diaprepes abbreviatus [18]", "result": "inactive"}, {"measurement": "Activity", "setting": "Schistocerca americana [19]", "result": 1.64, "unit": "cm2"}]}, {"compound": "CC(C)[C@@]1(O)[C@@H](OC(=O)c2cc[nH]c2)[C@@]2(O)[C@]3(C)C[C@@]4(O)O[C@@]5([C@H](O)[C@@H](C)CC[C@]35O)[C@@]2(O)[C@@]41C", "note": "[RYANODINE]", "values": [{"measurement": "Activity", "setting": "Diaprepes abbreviatus [20]", "result": "inactive"}, {"measurement": "Activity", "setting": "Schistocerca americana [1]", "result": "inactive"}, {"measurement": "Activity", "setting": "Schistocerca americana [2]", "result": "inactive"}, {"measurement": "Activity", "setting": "Schistocerca americana [21]", "result": 0.76, "unit": "cm2"}, {"measurement": "Activity", "setting": "Diaprepes abbreviatus [22]", "result": 0.48, "unit": "cm2"}, {"measurement": "Activity", "setting": "Diaprepes abbreviatus [23]", "result": "inactive"}, {"measurement": "Activity", "setting": "Schistocerca americana [24]", "result": 2.35, "unit": "cm2"}, {"measurement": "Activity", "setting": "Diaprepes abbreviatus [25]", "result": 1.46, "unit": "cm2"}, {"measurement": "Activity", "setting": "Schistocerca americana [8]", "result": "inactive"}, {"measurement": "Activity", "setting": "Diaprepes abbreviatus [26]", "result": "inactive"}]}]}
